Assay results reported in ChEMBL document CHEMBL4033766, “Discovery of the Antitumor Effects of a Porphyrazine Diol (Pz 285) in MDA-MB-231 Breast Tumor Xenograft Models in Mice” (ACS Med Chem Lett, 2017).
Calls of active or inactive are those of the source. No cut-off for these calls is given here.

How the values were obtained:
MDA-MB-231 = assay: Antiproliferative activity against human MDA-MB-231 cells at 25 uM after 48 hrs by MTS assay relative to control; type: functional
[1] = Antiproliferative activity against human MDA-MB-231-LM24 cells after 48 hrs by MTS assay; type: functional, cell-based; conditions: MDA-MB-231-LM24, 48 h
[2] = Antitumor activity against Her2-positive human MDA-MB-231-LM24 cells xenografted in SCID-beige mouse harboring Td-tomato and Luc2 assessed as survival days at 2.5 mg/kg, iv administered every 7 days for 28 days (reference value: 9.5 days); type: functional
[3] = Antitumor activity against Her2-positive human MDA-MB-231-LM24 cells xenografted in SCID-beige mouse harboring Td-tomato and Luc2 assessed as tumor growth inhibition at 2.5 mg/kg, iv administered every 7 days for 28 days relative to control; type: functional; conditions: MDA-MB-231-LM24, iv, read-out: TGI
MDA-MB-231-LM24 = assay: Antimetastatic activity against Her2-positive human MDA-MB-231-LM24 cells xenografted in SCID-beige mouse harboring Luc2 assessed as reduction in tumor burden in lung at 2.5 mg/kg, iv administered every 7 days for 2 weeks by bioluminescence analysis; type: functional, organism-based
[4] = Antitumor activity against Her2-positive human MDA-MB-231-LM24 cells xenografted in SCID-beige mouse harboring Td-tomato and Luc2 assessed as survival days at 1.25 mg/kg, iv administered every 7 days for 28 days (reference value: 9.5 days); type: functional

Structure (SMILES)	Activity (MDA-MB-231)	IC50 [1] [µM]	Survival [2] [days]	inhibition in vivo at 2.5 mg/kg [3] [%]	Activity (MDA-MB-231-LM24)	Survival [4] [days]
CO[C@]1(C)OC2=C(O[C@@]1(C)OC)c1nc2nc2[nH]c(nc3nc(nc4[nH]c(n1)c1c4O[C@@](C)(OC)[C@](C)(OC)O1)C1=C3O[C@@](C)(OC)[C@](C)(OC)O1)c1c2O[C@@](C)(OC)[C@](C)(OC)O1	inactive	–	–	–	–	–
CO[C@]1(C)OC2=C(O[C@@]1(C)OC)c1nc2nc2[nH]c(nc3nc(nc4[nH]c(n1)c1c4O[C@@](C)(OC)[C@](C)(OC)O1)-c1c(OCCO)ccc(OCCO)c1-3)c1c2O[C@@](C)(OC)[C@](C)(OC)O1	40%	15	22.5	> 65	Active	–
COc1cccc2c1C(=O)c1c(O)c3c(c(O)c1C2=O)C[C@@](O)(C(=O)CO)C[C@@H]3O[C@H]1C[C@H](N)[C@H](O)[C@H](C)O1 [DOXORUBICIN]	–	–	14	–	–	20
